Assay results: patent US9233138B2, “Compositions for promoting HIV-1 virolysis and methods using same” (Drexel University, priority 2013, dated 2016)
Entries after “also recorded” stand apart in the source; their conditions may differ. Where two headings read alike, the source gives them in different places.

Columns and labels:
[1] = tested on: HIV-1 BaL pseudotyped virus; assay type: cell-based; details: for IC50: read-out: IC50, inhibition of HIV-1 BaL viral entry
[2] = tested on: HIV-1 BaL pseudotyped virus
[3] = tested on: VSV pseudotyped virus; assay type: cell-based, Vesicular Stomatitis Virus
[4] = tested on: VSV pseudotyped virus; set-up: species or system Vesicular Stomatitis Virus
[5] = tested on: fully infectious HIV-1 BaL; assay: Virolysis assay, p24 leakage ELISA, fully infectious virus; details: FIG. 5; read-out: IC50 for p24 leakage from fully infectious HIV-1 BaL
[6] = tested on: HOS.T4.R5 cells
[7] = tested on: HIV-1 BaL pseudovirus; details: 100 nM, 10 to 30 min at 37° C., compared with PBS treated virus
Procedure: The compounds were incubated with the HIV-1 BaL pseudovirus for 30 min at 37° C. before fixing the virions with 0.1% paraformaldehyde and loaded onto a holey carbon 200 mesh grid for TEM analysis. The grids were stained with 1% uranyl acetate and loaded onto a JEM 2100 microscope system (JEOL, Japan) operated at 120 kV. Energy-dispersive X-ray (EDX) spectroscopy was conducted on the sample (blue) and the empty mesh (red) in order to confirm assignment of virion particles.
Transmission electron microscopy (TEM) analysis was conducted to assess the morphology of untreated and D4- and D8-treated virions. Pseudotyped HIV-1 BaL was treated with D4 or D8 at 100 nM from 10 to 30 min at 37° C. The samples were then spun for 2 hours at 16,000 rpm in an ultracentrifuge (Eppendorf) at 4° C. The residual virions were fixed using 0.1% paraformaldehyde for 15 min at 4° C. The paraformaldehyde was filtered using a 100 kDa filter (Millipore), and the virions were resuspended in deionized water. The samples were then loaded onto a lacey carbon 200 mesh grid (Pacific Grid Tech), and the grid was then negatively stained using 2% uranyl acetate. Once the grid was dried, the samples were loaded onto a JEM 2100 microscope system (JEOL, Japan) operated at 120 kV. The virus images and the background mesh were evaluated by energy-dispersive X-ray spectroscopy (EDX) in order to confirm identification of virions. […]

[8] = tested on: HIV-1 group M clades; details: read-out: IC50, antiviral activity against all HIV-1 group M clades; cited from earlier work
[9] = tested on: Env / gp120; details: cited from earlier work
[10] = tested on: A-MLV pseudotyped virus; assay type: cell-based, Amphotropic Murine Leukemia Virus
[11] = tested on: HIV-1 BaL pseudovirus; details: D4 and D8 50 nM; competitor serial dilution from 0.5 μM
[12] = tested on: HOS.T4.R5 cells; assay: Cytotoxicity assay with WST-1 reagent; set-up: dose or concentration left out as unconfirmed; details: 24 hours post-exposure, FIG. 3

Molecule: (G4S)4-MPER [linker(4)-MPER, reference compound]
- virus inactivation accompanying p24 leakage [1]: not associated with equivalent virus inactivation
- p24 leakage ([2]; non-His-tagged peptide, FIG. 13C): Significant p24 leakage

Molecule: D4: fusion of CVN and MPER with (Gly4Ser)4-His6 linker: SEQ ID NO:1-(SEQ ID NO:6)4-SEQ ID NO:5-SEQ ID NO:11
- IC50 [1]: 0.58 ± 0.069 nM
- viral entry inhibition, VSV envelope pseudovirus [3]: no significant dose-dependent viral entry inhibition
- IC50 ([2]; HIV-1 BaL pseudovirus, 30 min incubation, relative to 1% Triton X-100 lysed virus, FIG. 4A, read-out: IC50 for viral leakage (p24 release)): 14.2 ± 0.8 nM
- p24 leakage, VSV-envelope control virus [4]: no leakage
- IC50 [5]: 200 ± 22 nM
- cytotoxicity (cell viability, WST-1) [6]: No statistically significant differences
- virion morphology after treatment (TEM) [7]: significant morphological differences relative to intact virions

Molecule: microvirin [MVN, reference compound]
- antiviral property / infectivity inhibition of MVN-based DAVEI [1]: only exhibited antiviral property
- virolytic property of MVN-based DAVEI ([2]; FIG. 10C): only exhibited antiviral property
- IC50 [8]: 2 to 167 nM
- causes gp120 shedding? [9]: No
- conformationally activates Env? [9]: No

B1: cyanovirin-N (protein)
chain: LGKFSQTCYNSAIQGSVLTSTCERTNGGYNTSSIDLNSVIENVDGSLKWQPSNFIETCRNTQLAGSSELAAECKTRAQQFVSTKINLDDHIANIDGTLKYE
modifications: cyanovirin-N fragment
- IC50 [1]: 0.16 ± 0.031 nM
- viral entry inhibition, VSV envelope pseudovirus [3]: no significant dose-dependent viral entry inhibition
- viral entry inhibition, A-MLV envelope pseudovirus [10]: no significant dose-dependent viral entry inhibition
- leakage of intraviral p24 ([2]; at concentrations up to at least 10 μM, FIG. 4A): unable to induce the leakage of intraviral p24
- competition of the virolytic activity of both D4 and D8 [11]: observed in a dose-dependent fashion
- causes gp120 shedding? [9]: No
- conformationally activates Env? [9]: No
- cytotoxicity (cell viability, WST-1) [12]: no significant cytotoxicity; also recorded: No statistically significant differences
